Results from article PMC5839718 (The Journal of General Physiology, 2018).
Values joined by “and” are separate entries in the source; they are usually repeats but may differ in a detail not shown here. Identical values can stand only once. “Also recorded” adds a separate entry of the source. Like-named read-outs stand apart in the source and are kept apart here. Each block holds one compound with its values, some of them ahead of it.

Columns and labels:
Format in all cases: cell-based
[1] = biological target: (α4)3(β2)2 nAChR from α4 and β2 (10:1) (Homo sapiens, UniProt P17787+P43681); test: two-electrode voltage-clamp, X. laevis oocytes, α4 and β2 cRNA 10:1
[2] = biological target: (α4^VFL)3(β2)2 nAChR from α4^VFL and β2 (10:1) (Homo sapiens, UniProt P17787+P43681, H142V/Q150F/T152L); test: two-electrode voltage-clamp, X. laevis oocytes, α4^VFL and β2 cRNA 10:1
[3] = biological target: α4β2 nAChR from concatenated β-6-α alone (Homo sapiens, UniProt P17787+P43681); test: two-electrode voltage-clamp, oocytes, β-6-α alone
[4] = biological target: α4β2 nAChR from β-6-α and α4 (1:1) (Homo sapiens, UniProt P17787+P43681); test: two-electrode voltage-clamp, oocytes, β-6-α and α4; settings: β-6-α + α4
[5] = biological target: α4β2 nAChR from β-6-α and α4^VFL (1:1) (Homo sapiens, UniProt P17787+P43681, H142V/Q150F/T152L); test: two-electrode voltage-clamp, oocytes, β-6-α and α4^VFL 1:1; settings: β-6-α + α4^VFL 1:1
[6] = biological target: α4β2 nAChR from β-9a-α alone (Homo sapiens, UniProt P17787+P43681); test: two-electrode voltage-clamp, oocytes, β-9a-α alone
[7] = biological target: α4β2 nAChR from β-9a-α and α4 (1:1) (Homo sapiens, UniProt P17787+P43681); test: two-electrode voltage-clamp, oocytes, β-9a-α and α4
[8] = biological target: α4β2 nAChR from β-9a-α and α4^VFL (1:1) (Homo sapiens, UniProt P17787+P43681, H142V/Q150F/T152L); test: two-electrode voltage-clamp, oocytes, β-9a-α and α4^VFL
[9] = biological target: α4β2 nAChR from β-6a-α alone (Homo sapiens, UniProt P17787+P43681); test: two-electrode voltage-clamp, oocytes, β-6a-α alone
[10] = biological target: α4β2 nAChR from β-6a-α and α4^VFL (1:1) (Homo sapiens, UniProt P17787+P43681, H142V/Q150F/T152L); test: two-electrode voltage-clamp, oocytes, β-6a-α and α4^VFL
[11] = biological target: α4β2 nAChR from β-3a-α and α4^VFL (1:1) (Homo sapiens, UniProt P17787+P43681, H142V/Q150F/T152L); test: two-electrode voltage-clamp, oocytes, β-3a-α and α4^VFL
[12] = biological target: α4β2 nAChR from β-0a-α and α4^VFL (1:1) (Homo sapiens, UniProt P17787+P43681, H142V/Q150F/T152L); test: two-electrode voltage-clamp, oocytes, β-0a-α and α4^VFL; settings: β-0a-α + α4^VFL
[13] = biological target: α4β2 nAChR from β-6-α-9-β-6-α and α4^VFL (1:5) (Homo sapiens, UniProt P17787+P43681, H142V/Q150F/T152L); test: two-electrode voltage-clamp, oocytes, β-6-α-9-β-6-α and α4^VFL 1:5
[14] = biological target: α4β2 nAChR from β-21a-α-β-α-α (Homo sapiens, UniProt P17787+P43681); test: two-electrode voltage-clamp, oocytes, pentameric β-21a-α-β-α-α
[15] = biological target: α4β2 nAChR from β-21a-α-β-α-α^VFL (Homo sapiens, UniProt P17787+P43681, H142V/Q150F/T152L); test: two-electrode voltage-clamp, oocytes, pentameric β-21a-α-β-α-α^VFL
[16] = biological target: α4β2 nAChR from β-21a-α-α-β-α (Homo sapiens, UniProt P17787+P43681); test: two-electrode voltage-clamp, oocytes, pentameric β-21a-α-α-β-α
[17] = biological target: α4β2 nAChR from β-21a-α-α^VFL-β-α (Homo sapiens, UniProt P17787+P43681, H142V/Q150F/T152L); test: two-electrode voltage-clamp, oocytes, pentameric β-21a-α-α^VFL-β-α
[18] = biological target: α4β2 nAChR from β-3a-α-β-α-α (Homo sapiens, UniProt P17787+P43681); test: two-electrode voltage-clamp, oocytes, pentameric β-3a-α-β-α-α
[19] = biological target: α4β2 nAChR from β-3a-α-β-α-α^VFL (Homo sapiens, UniProt P17787+P43681, H142V/Q150F/T152L); test: two-electrode voltage-clamp, oocytes, pentameric β-3a-α-β-α-α^VFL
[20] = biological target: α4β2 nAChR from β-3a-α^VFL-β-α-α (Homo sapiens, UniProt P17787+P43681, H142V/Q150F/T152L); test: two-electrode voltage-clamp, oocytes, pentameric β-3a-α^VFL-β-α-α
[21] = biological target: α4β2 nAChR from β-3a-α^VFL-α-β-α (Homo sapiens, UniProt P17787+P43681, H142V/Q150F/T152L); test: two-electrode voltage-clamp, oocytes, pentameric β-3a-α^VFL-α-β-α
[22] = […] NS9283 + 10 µM ACh, % change from AChcontrol current

Sequence of (α4^VFL)3(β2)2 nAChR from α4^VFL and β2 (10:1) (P43681 27-627 H142V/Q150F/T152L): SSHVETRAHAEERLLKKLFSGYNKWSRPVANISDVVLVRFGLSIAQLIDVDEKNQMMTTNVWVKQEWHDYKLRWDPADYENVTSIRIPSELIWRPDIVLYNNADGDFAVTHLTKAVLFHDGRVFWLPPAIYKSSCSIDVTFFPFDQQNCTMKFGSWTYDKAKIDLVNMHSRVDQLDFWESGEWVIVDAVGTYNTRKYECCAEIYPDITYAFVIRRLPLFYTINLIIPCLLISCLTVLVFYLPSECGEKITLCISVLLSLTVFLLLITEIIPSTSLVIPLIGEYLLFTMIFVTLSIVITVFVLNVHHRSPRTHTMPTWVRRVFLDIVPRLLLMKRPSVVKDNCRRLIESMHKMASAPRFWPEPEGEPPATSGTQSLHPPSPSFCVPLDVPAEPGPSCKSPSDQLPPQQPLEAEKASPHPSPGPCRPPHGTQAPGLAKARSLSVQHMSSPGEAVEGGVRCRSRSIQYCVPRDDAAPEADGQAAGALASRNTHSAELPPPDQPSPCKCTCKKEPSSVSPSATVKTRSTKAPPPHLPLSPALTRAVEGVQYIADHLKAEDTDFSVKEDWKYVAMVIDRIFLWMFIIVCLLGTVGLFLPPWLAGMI
Sequence of (α4^VFL)3(β2)2 nAChR from α4^VFL and β2 (10:1) (P17787 26-502): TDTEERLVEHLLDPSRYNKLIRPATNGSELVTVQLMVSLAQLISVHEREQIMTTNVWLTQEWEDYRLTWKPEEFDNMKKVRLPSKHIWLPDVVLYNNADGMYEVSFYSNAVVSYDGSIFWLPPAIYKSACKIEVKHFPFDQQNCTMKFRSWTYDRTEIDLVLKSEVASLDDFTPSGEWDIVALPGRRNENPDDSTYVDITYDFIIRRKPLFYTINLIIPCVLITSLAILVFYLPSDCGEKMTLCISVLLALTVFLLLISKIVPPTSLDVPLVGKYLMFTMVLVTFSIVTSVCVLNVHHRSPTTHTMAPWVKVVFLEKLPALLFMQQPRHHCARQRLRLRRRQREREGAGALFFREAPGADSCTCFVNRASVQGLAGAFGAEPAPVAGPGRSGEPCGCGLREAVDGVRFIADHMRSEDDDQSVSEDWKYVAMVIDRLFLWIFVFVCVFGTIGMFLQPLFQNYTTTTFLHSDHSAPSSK
Sequence of (α4)3(β2)2 nAChR from α4 and β2 (10:1) (P43681 27-627): as the sequence (P43681 27-627 H142V/Q150F/T152L) above, with V116H, F124Q, L126T counted along it
Sequence of (α4)3(β2)2 nAChR from α4 and β2 (10:1) (P17787 26-502): as the sequence (P17787 26-502) above
Sequence of α4β2 nAChR from β-21a-α-α^VFL-β-α (P17787 26-502): as above
Sequence of α4β2 nAChR from β-21a-α-α^VFL-β-α (P43681 27-627, stated change not applied): as the sequence (P43681 27-627 H142V/Q150F/T152L) above, with V116H, F124Q, L126T counted along it
Sequence of α4β2 nAChR from β-21a-α-α^VFL-β-α (P43681 27-627 H142V/Q150F/T152L): as the sequence (P43681 27-627 H142V/Q150F/T152L) above
Sequence of α4β2 nAChR from β-21a-α-α^VFL-β-α (P17787 26-502): as the sequence (P17787 26-502) above
Sequence of α4β2 nAChR from β-21a-α-α^VFL-β-α (P43681 27-627, stated change not applied): as the sequence (P43681 27-627 H142V/Q150F/T152L) above, with V116H, F124Q, L126T counted along it

Emax ([1]; read-out: ACh Emax): 102 ± 1%
ACh Frac (first component fraction) ([1]; α4+β2 10:1, biphasic fit): 0.11 ± 0.03
Emax ([2]; read-out: ACh Emax): 104 ± 2%
ACh Frac (first component fraction) ([2]; α4^VFL+β2 10:1, biphasic fit): 0.71 ± 0.12
Emax ([3]; read-out: ACh Emax): 102 ± 2%
ACh Frac (first component fraction) ([3]; β-6-α alone, biphasic fit): 0.11 and 0.11 ± 0.02
ACh Frac (first component fraction) ([4]; biphasic fit): 0.073 ± 0.038
ACh Frac (first component fraction) ([5]; biphasic fit): 0.40 ± 0.08
Emax ([6]; read-out: ACh Emax): 105 ± 3%
ACh Frac (first component fraction) ([6]; β-9a-α alone, biphasic fit): 0.28 and 0.28 ± 0.05
ACh Frac (first component fraction) ([7]; β-9a-α + α4, biphasic fit): 0.13 ± 0.05
ACh Frac (first component fraction) ([8]; β-9a-α + α4^VFL, biphasic fit): 0.32 ± 0.09
Emax ([9]; read-out: ACh Emax): 103 ± 2%
ACh Frac (first component fraction) ([9]; β-6a-α alone, biphasic fit): 0.70 ± 0.12
ACh Frac (first component fraction) ([10]; β-6a-α + α4^VFL, biphasic fit): 0.31 ± 0.14
ACh Frac (first component fraction) ([11]; β-3a-α + α4^VFL, biphasic fit): 0.41 ± 0.06
ACh Frac (first component fraction) ([12]; biphasic fit): 0.28 ± 0.34
ACh Frac (first component fraction) ([13]; β-6-α-9-β-6-α + α4^VFL 1:5, biphasic fit): 0.32 ± 0.13
Emax ([14]; read-out: ACh Emax): 101 ± 1%
mean AChmax-evoked currents ([14]; β-21a-α-β-α-α): ~2 μA
ACh Frac (first component fraction) ([14]; β-21a-α-β-α-α, biphasic fit): 0.060 ± 0.011
Emax ([15]; read-out: ACh Emax): 105 ± 1%
ACh Frac (first component fraction) ([15]; β-21a-α-β-α-α^VFL, biphasic fit): 0.59 ± 0.07
Emax ([16]; read-out: ACh Emax): 100 ± 2%
ACh Frac (first component fraction) ([16]; β-21a-α-α-β-α, biphasic fit): 0.060 ± 0.025
Emax ([17]; read-out: ACh Emax): 102 ± 2%
ACh Frac (first component fraction) ([17]; β-21a-α-α^VFL-β-α, biphasic fit): 0.46 ± 0.18
Emax ([18]; read-out: ACh Emax): 102 ± 1%
ACh Frac (first component fraction) ([18]; β-3a-α-β-α-α, biphasic fit): 0.11 ± 0.02
Emax ([19]; read-out: ACh Emax): 104 ± 1%
ACh Frac (first component fraction) ([19]; β-3a-α-β-α-α^VFL, biphasic fit): 0.53 ± 0.08
Emax ([20]; read-out: ACh Emax): 105 ± 1%
ACh Frac (first component fraction) ([20]; β-3a-α^VFL-β-α-α, biphasic fit): 0.39 ± 0.05
Emax ([21]; read-out: ACh Emax): 105 ± 4%
ACh Frac (first component fraction) ([21]; β-3a-α^VFL-α-β-α, biphasic fit): 0.28 ± 0.10
SMILES: CC(=O)OCC[N+](C)(C)C [ACh, acetylcholine]

EC50 [1]: 5.01 µM
Emax ([1]; read-out: NS9283 Emax): 860 ± 60%
EC50 [3]: 12.6 µM
Emax ([3]; read-out: NS9283 Emax): 900 ± 140%
NS9283 E31.6 µM ([3]; β-6-α alone, […] NS9283 + 10 µM ACh, % change from AChcontrol current): 640 ± 90%
NS9283 E31.6 µM [4, 22]: 860 ± 100%
NS9283 E31.6 µM [5, 22]: 210 ± 20%
EC50 [6]: 10 µM
Emax ([6]; read-out: NS9283 Emax): 130 ± 30%
NS9283 E31.6 µM ([6]; β-9a-α alone, […] NS9283 + 10 µM ACh, % change from AChcontrol current): 100 ± 20%
EC50 ([7]; NS9283 pEC50, β-9a-α + α4, coapplied with 10 µM ACh): 12.6 µM
EC50 ([8]; NS9283 pEC50, β-9a-α + α4^VFL, coapplied with 10 µM ACh): 10 µM
NS9283 E31.6 µM ([8]; β-9a-α + α4^VFL, […] NS9283 + 10 µM ACh, % change from AChcontrol current): 200 ± 10%
EC50 [9]: 3.98 µM
Emax ([9]; read-out: NS9283 Emax): 51 ± 7%
EC50 ([10]; NS9283 pEC50, β-6a-α + α4^VFL, coapplied with 10 µM ACh): 10 µM
NS9283 E31.6 µM ([10]; β-6a-α + α4^VFL, […] NS9283 + 10 µM ACh, % change from AChcontrol current): 140 ± 10%
EC50 ([11]; NS9283 pEC50, β-3a-α + α4^VFL, coapplied with 10 µM ACh): 6.31 µM
NS9283 E31.6 µM ([11]; β-3a-α + α4^VFL, […] NS9283 + 10 µM ACh, % change from AChcontrol current): 22 ± 3%
EC50 ([13]; NS9283 pEC50, β-6-α-9-β-6-α + α4^VFL 1:5, coapplied with 10 µM ACh): 7.94 µM
EC50 [14]: 7.94 µM
EC50 [15]: 5.01 µM
Emax ([15]; read-out: NS9283 Emax): 48 ± 5%
NS9283 E31.6 µM ([15]; β-21a-α-β-α-α^VFL, […] NS9283 + 10 µM ACh, % change from AChcontrol current): 41 ± 4%
EC50 [16]: 5.01 µM
Emax ([16]; read-out: NS9283 Emax): 910 ± 70%
NS9283 E31.6 µM ([16]; β-21a-α-α-β-α, […] NS9283 + 10 µM ACh, % change from AChcontrol current): 780 ± 90%
EC50 ([17]; NS9283 pEC50, β-21a-α-α^VFL-β-α, coapplied with 10 µM ACh): 10 µM
Emax ([17]; read-out: NS9283 Emax): 75 ± 9%
NS9283 E31.6 µM ([17]; β-21a-α-α^VFL-β-α, […] NS9283 + 10 µM ACh, % change from AChcontrol current): 55 ± 6%
EC50 [18]: 7.94 µM
Emax ([18]; read-out: NS9283 Emax): 800 ± 90%
NS9283 E31.6 µM ([18]; β-3a-α-β-α-α, […] NS9283 + 10 µM ACh, % change from AChcontrol current): 640 ± 90%
Emax ([19]; read-out: NS9283 Emax): 13 ± 1%
NS9283 E31.6 µM ([19]; β-3a-α-β-α-α^VFL, […] NS9283 + 10 µM ACh, % change from AChcontrol current): 11 ± 2%
EC50 ([20]; NS9283 pEC50, β-3a-α^VFL-β-α-α, coapplied with 10 µM ACh): 6.31 µM
Emax ([20]; read-out: NS9283 Emax): 240 ± 20%
EC50 ([21]; NS9283 pEC50, β-3a-α^VFL-α-β-α, coapplied with 10 µM ACh): 7.94 µM
Emax ([21]; read-out: NS9283 Emax): 340 ± 20%
NS9283 E31.6 µM ([21]; β-3a-α^VFL-α-β-α, […] NS9283 + 10 µM ACh, % change from AChcontrol current): 270 ± 10%
SMILES: N#Cc1cccc(-c2nc(-c3cccnc3)no2)c1 [NS9283, 3-(3-(pyridine-3-yl)-1,2,4-oxadiazol-5-yl)benzonitrile]
NS9283 Emax ([2]; α4^VFL+β2 10:1, coapplied with 10 µM ACh): no positive efficacy; also recorded: No pos. pot
NS9283 Emax ([12]; coapplied with 10 µM ACh): No hint of NS9283 enhancement; also recorded: No pos. pot
